In patent publication US9326961B2, “Diet and methods for improving learning capacity, mood and behavior in mammals” (COAPE, LTD, priority 2010, dated 2016):

Columns and labels:
dogs (slow learners) = experiment: Discrimination learning, T-maze test (Test B) after three weeks on assigned diet; format: in vivo, dog; details: diet supplementation, compared with adding tryptophan to the diet
Method: To determine the effect of diet on learning capability, 81 dogs of various ages, types and sex were recruited from dog training clubs and colleagues of the experimenter; however, one dog had to be withdrawn from the study. Inclusion into the study required that the dogs were not receiving any veterinary treatment or medication for behavioral problems. All dogs were in good health, having been fully vaccinated and wormed. Dogs were tested in simple tests that required no lengthy training time. […] Each dog's baseline learning capability was established on its performance in Test A. It was determined that 15 of the dogs were fast learners, while 65 were slow learners.
Each owner was supplied an information sheet advising how to introduce the new diet over a period of days, to ensure that no digestion problems occurred from a sudden change of food. The dogs remained on the assigned diet for a period of three weeks and their learning capability was re-evaluated according to their performance in Test B. Latency to learn the task was used as a measure of learning capability and specific displacement activities were monitored to evaluate the effect on various behavior patterns. […]
The dogs' latency to learn was measured in the time it took them, to achieve success, measured as 100% of correct responses in five consecutive trials. […]

horse = details: horses, cited from earlier work

Row | Compound | enhancing serotonin levels in the brain, as measured by improved behavior and learning ability (dogs (slow learners)) | toxicity (horse; high doses given orally, presumably toxic hindgut metabolite) | effect on endurance capacity (horse; high doses) | behavioral effect (horse; low doses)
1 | CC(C)C[C@H](N)C(=O)O [leucine] | as effective in enhancing serotonin levels in the brain as adding tryptophan to the diet |  |  | 
2 | N[C@@H](Cc1c[nH]c2ccccc12)C(=O)O [Tryptophan] |  | may cause hemolytic anemia | reduce endurance capacity | mild excitement
